Legend:
[1] = Drug metabolism in rat liver cytosol assessed as CYP450-mediated 6-fluoro-3-(4-fluorobenzylcarbamoyl)-1-(3-hydroxybutyl)-7-morpholino-4-oxo-1,4-dihydroquinolinium formation at 100 uM using NADPH/H+ as co-factor after 30 to 90 mins by LC/MSD iom trap method; format: ADME, subcellular
[2] = Selectivity index, ratio of CC50 for mouse J774.1 cells to IC50 for trypomastigote forms of Trypanosoma brucei brucei TC 221 assessed as parasite growth inhibition after 48 hrs; format: toxicity; conditions: read-out: Ratio CC50/IC50
[3] = Half life in rat liver cytosol; format: ADME, subcellular
[4] = Drug metabolism in rat liver cytosol assessed as CYP450-mediated 6-fluoro-3-(4-fluorobenzylcarbamoyl)-1-methyl-7-morpholino-4-oxo-1,4-dihydroquinolinium formation at 100 uM using NADPH/H+ as co-factor after 30 to 90 mins by LC/MSD iom trap method; format: ADME, subcellular
[5] = Drug metabolism in rat liver microsomes assessed as CYP450-mediated 6-fluoro-3-(4-fluorobenzylcarbamoyl)-7-morpholino-4-oxo-1,4-dihydroquinolinium formation at 100 uM using NADPH/H+ as co-factor after 30 to 90 mins by LC/MSD iom trap method; format: ADME
[6] = Octanol/water partition co-efficient, log P of the compound by HPLC based method; format: physicochemical
[7] = Drug metabolism in rat liver cytosol assessed as CYP450-mediated 1-butyl-3-carboxy-6-fluoro-7-morpholino-4-oxo-1,4-dihydroquinolinium formation at 100 uM using NADPH/H+ as co-factor after 30 to 90 mins by LC/MSD iom trap method; format: ADME, subcellular
[8] = Solubility of the compound in RPMI-1640 medium; format: physicochemical
[9] = Cytotoxicity against mouse J774.1 cells after 24 hrs by Alamar blue assay; format: cell-based
[10] = test system: Trypanosoma brucei brucei; test: Antitrypanosomal activity against trypomastigote forms of Trypanosoma brucei brucei TC 221 assessed as parasite growth inhibition after 72 hrs by Alamar blue assay; format: functional, organism-based; conditions: TC 221, 72 h
[11] = Drug metabolism in rat liver microsomes assessed as CYP450-mediated 1-butyl-3-carboxy-6-fluoro-7-morpholino-4-oxo-1,4-dihydroquinolinium formation at 100 uM using NADPH/H+ as co-factor after 30 to 90 mins by LC/MSD iom trap method; format: ADME
[12] = test system: Trypanosoma brucei brucei; test: Antitrypanosomal activity against trypomastigote forms of Trypanosoma brucei brucei TC 221 assessed as parasite growth inhibition after 48 hrs by Alamar blue assay; format: functional, organism-based; conditions: TC 221, 48 h
[13] = Drug metabolism in rat liver cytosol assessed as CYP450-mediated 6-fluoro-3-(4-fluorobenzylcarbamoyl)-7-morpholino-4-oxo-1,4-dihydroquinolinium formation at 100 uM using NADPH/H+ as co-factor after 30 to 90 mins by LC/MSD iom trap method; format: ADME, subcellular
[14] = Drug metabolism in rat liver microsomes assessed as CYP450-mediated 6-fluoro-3-(4-fluorobenzylcarbamoyl)-1-(3-hydroxybutyl)-7-morpholino-4-oxo-1,4-dihydroquinolinium formation at 100 uM using NADPH/H+ as co-factor after 30 to 90 mins by LC/MSD iom trap method; format: ADME
[15] = Drug metabolism in rat liver microsomes assessed as CYP450-mediated 6-fluoro-3-(4-fluorobenzylcarbamoyl)-1-methyl-7-morpholino-4-oxo-1,4-dihydroquinolinium formation at 100 uM using NADPH/H+ as co-factor after 30 to 90 mins by LC/MSD iom trap method; format: ADME
[16] = Drug metabolism in rat liver cytosol assessed as CYP450-mediated 1-butyl-3-carboxy-5-fluoro-7-morpholino-4-oxo-1,4-dihydroquinolinium formation at 100 uM using NADPH/H+ as co-factor after 30 to 90 mins by LC/MSD iom trap method; format: ADME, subcellular
[17] = Drug metabolism in rat liver microsomes assessed as CYP450-mediated 5-fluoro-3-(4-fluorobenzylcarbamoyl)-7-morpholino-4-oxo-1,4-dihydroquinolinium formation at 100 uM using NADPH/H+ as co-factor after 30 to 90 mins by LC/MSD iom trap method; format: ADME
[18] = Drug metabolism in rat liver cytosol assessed as CYP450-mediated 5-fluoro-3-(4-fluorobenzylcarbamoyl)-1-(3-hydroxybutyl)-7-morpholino-4-oxo-1,4-dihydroquinolinium formation at 100 uM using NADPH/H+ as co-factor after 30 to 90 mins by LC/MSD iom trap method; format: ADME, subcellular
[19] = Stability in rat liver cytosol assessed as compound turnover per mg protein; format: ADME, subcellular
[20] = Drug metabolism in rat liver cytosol assessed as CYP450-mediated 5-fluoro-3-(4-fluorobenzylcarbamoyl)-1-methyl-7-morpholino-4-oxo-1,4-dihydroquinolinium formation at 100 uM using NADPH/H+ as co-factor after 30 to 90 mins by LC/MSD iom trap method; format: ADME, subcellular
[21] = Drug metabolism in rat liver microsomes assessed as CYP450-mediated 5-fluoro-3-(4-fluorobenzylcarbamoyl)-1-methyl-7-morpholino-4-oxo-1,4-dihydroquinolinium formation at 100 uM using NADPH/H+ as co-factor after 30 to 90 mins by LC/MSD iom trap method; format: ADME
[22] = Drug metabolism in rat liver cytosol assessed as CYP450-mediated 5-fluoro-3-(4-fluorobenzylcarbamoyl)-7-morpholino-4-oxo-1,4-dihydroquinolinium formation at 100 uM using NADPH/H+ as co-factor after 30 to 90 mins by LC/MSD iom trap method; format: ADME, subcellular
[23] = Drug metabolism in rat liver microsomes assessed as CYP450-mediated 1-butyl-3-carboxy-5-fluoro-7-morpholino-4-oxo-1,4-dihydroquinolinium formation at 100 uM using NADPH/H+ as co-factor after 30 to 90 mins by LC/MSD iom trap method; format: ADME
[24] = Drug metabolism in rat liver microsomes assessed as CYP450-mediated 5-fluoro-3-(4-fluorobenzylcarbamoyl)-1-(3-hydroxybutyl)-7-morpholino-4-oxo-1,4-dihydroquinolinium formation at 100 uM using NADPH/H+ as co-factor after 30 to 90 mins by LC/MSD iom trap method; format: ADME

CCCCn1cc(C(=O)NCc2ccc(F)cc2)c(=O)c2cc(F)c(N3CCOCC3)cc21
Drug metabolism [1]: Metabolite_Detected | selectivity ratio at 48 h [2]: > 400 | half-life [3]: 6.4 h | Drug metabolism [4]: Metabolite_Detected | Drug metabolism [5]: Metabolite_Detected | logP [6]: 4.13 | Drug metabolism [7]: Metabolite_Detected | solubility [8]: Insoluble | CC50 at 24 h [9]: > 20 µM | IC50 [10]: 0.09 µM | Drug metabolism [11]: Metabolite_Detected | IC50 [12]: 0.05 µM | Drug metabolism [13]: Metabolite_Detected | Drug metabolism [14]: Metabolite_Detected | Drug metabolism [15]: Metabolite_Detected

CCCCn1cc(C(=O)NCc2ccc(F)cc2)c(=O)c2c(F)cc(N3CCOCC3)cc21
selectivity ratio at 48 h [2]: > 1250 | half-life [3]: 7.7 h | Drug metabolism [16]: Metabolite_Detected | Drug metabolism [17]: Metabolite_Detected | logP [6]: 3.41 | solubility [8]: Insoluble | CC50 at 24 h [9]: > 25 µM | IC50 [10]: 0.02 µM | IC50 [12]: 0.02 µM | Drug metabolism [18]: Metabolite_Detected | Drug metabolism [19]: 3.89 pmol/min/mg protein | Drug metabolism [20]: Metabolite_Detected | Drug metabolism [21]: Metabolite_Detected | Drug metabolism [22]: Metabolite_Detected | Drug metabolism [23]: Metabolite_Detected | Drug metabolism [24]: Metabolite_Detected

— ChEMBL document CHEMBL4152252, “Fluorine walk: The impact of fluorine in quinolone amides on their activity against African sleeping sickness” (Eur J Med Chem, 2018)
